Source: patent US10287617B2, “Methods for in vitro—in vivo efficacy determination” (COLORADO STATE UNIVERSITY RESEARCH FOUNDATION, priority 2014, dated 2019)
In brackets after ≈: the same amount, converted by molar mass. Entries after “also recorded” stand apart in the source; their conditions may differ. Read-outs that look alike come from different tables or passages of the source. Marks after values point to notes of the source that are not given here.

Key:
[1] = test system: non-replicating M. tuberculosis H37Rv; test: Low oxygen study, non-replicating bacilli; type: cell-based, Mycobacterium tuberculosis; details: for Log10 (CFU+/−SD): 96 h post-treatment; for % Growth Reduction: benzimidazoles at 4 μg/mL; for Log10 (CFU) Reduction: vs control
Description: The low oxygen studies were performed similar to those described previously (Lenaerts et al., Antimicrob. Agents Chemother. 2005; 49:2294-2301). Briefly, M. tuberculosis H37Rv were diluted to an O.D. 600 nm of 0.003 in 7H9 media containing Methylene Blue (1.5 μg/mL) and were grown in 16×125 mm Hungate tubes with rubber septa (VWR cat#89167-170). The tubes, with 11 mL of the diluted cultures were incubated at 37° C. under agitation (150 rpm). […] One week after the reduction of methylene blue, approximately 28 days from the start, drug treatment was initiated with the test and control drugs. Prior to treatment, an aliquot was removed and plated for a CFU count to serve as a control. Isoniazid and metronidazole were used in the studies as comparative controls.
Recovery of aliquots for plating and the addition of drugs were conducted through septa using syringes to maintain the low-oxygen conditions. Ninety-six hours post-treatment, 1 mL of the culture was removed from the oxygen depleted cultures, the aliquot was serial diluted and the dilutions were plated. Log10 CFUs were calculated for the different treatments and concentrations. Percentage growth reduction from the controls was calculated and reported.

M. tuberculosis H37Rv [2] = type: cell-based; details: for MIC Alone: drug alone
[3] = test system: Mycobacteria tuberculosis; test: MIC and drug response curve type (Tables A and B); type: cell-based, Mycobacterium tuberculosis; details: for Curve: drug response curve type; for MIC: in µg/mL
Description: A drug concentration response curve can be generated by graphing the log10 drug concentrations (μg/mL) against the difference in growth between the drug-treated wells and control wells. See FIG. 3C, and FIG. 5 (entries for SB-P23D8 and SB-P26D9). A NREBA is indicative of bacteriostatic activity above the MIC.
(§1) Further analysis using the methods described herein was performed on the compounds found in Tables A and B (bold font compounds are shown in FIG. 11) resulting in the data found therein.
MIC values were determined for the benzimidazoles using a modified 96-well microplate Alamar Blue (resazurin) assay (MABA) (see Kumar et al., J. Med. Chem. 2011; 54:374-381; Collins and Franzblau, Antimicrob. Agents Chemother. 1997; 41:1004-1009). Dose response curves were generated from the MABA assay for compounds by graphing the log10 drug concentrations against the difference in growth between the drug-treated wells and control wells using GraphPad Prism Version 5.0d for Mac OS X (GraphPad Software, San Diego Calif., USA, www.graphpad.com). For time dose studies, bacterial growth in the presence of compound was monitored by the O.D. 600 nm. […] The values were plotted against time using GraphPad Prism Version 5.0d for Mac OS X (GraphPad Software, San Diego Calif., USA, www.graphpad.com).

M. tuberculosis H37Rv [4] = test: MIC / dose response by modified microplate Alamar Blue assay (MABA); type: cell-based, Mycobacterium tuberculosis; details: for drug concentration response curve (kill curve) type: FIG. 3; for MIC range: H37Rv and Erdman strains
M. tuberculosis H37Rv [5] = test: Growth inhibition / time dose curves (OD600 and CFU); type: cell-based, Mycobacterium tuberculosis; details: for concentrations at which bacterial growth was inhibited: O.D. 600 nm growth curves, 5 days
M. tuberculosis = test: Benzimidazoles activity tested in animals (animal models of infection, Table A); type: in vivo, mouse; details: for Efficacy Lung / Efficacy Spleen: Table A
Description: as §1
Compound efficacy was assessed in two murine models of infection based on the short term model described previously (Lenaerts et al., Antimicrob. Agents Chemother. 2003; 47:783-785). All aerosol infections were performed using a Middlebrook aerosol generation devise (Glas-Col, Terre Haute, Ind.).

M. tuberculosis NHN382 = test: microbe, parasite or virus in culture; type: cell-based, Mycobacterium tuberculosis
[6] = Oxidative metabolic lability in mouse liver microsomes; details: 5 μM, 1 mg/mL microsomal protein, 20 min
Description: (§2) Microsomal fractions were prepared in the Drug Disposition Domain at DSAR Montpellier (371 rue du Pr. J. Blayac, 34184 Montpellier Cedex 04, France). […] The flavin-containing monooxygenases (FMO)-dependent reactions were run in the presence of bovine serum albumin (BSA, 0.1%) for the duration of 0 and 20 min (with or without microsomal proteins and/or cofactors). […] Following protein precipitation with acetonitrile and their removal by centrifugation, supernatant fluids were analyzed by LC/MS-MS.
(§3) Thermo Finnigan TSQ Quantum Ultra instrument, ESI positive ion ionization mode. Each compound is studied in duplicates. Results are expressed in percentage of lability (or total metabolism). Total metabolism=[1−(UC_Peak Area+Cofactor at T20)/(UC_Peak Area Reference at T0)]×100
(§4) The reactions were prepared as described and were run in the presence of bovine scrum albumin (BSA, 0.1%) for the duration of 0 and 20 min (with or without microsomal proteins and/or cofactors). Enzyme activity was stopped, the protein was precipitated and removed by centrifugation. The supernatant fluids were analyzed by LC/MS-MS. […] A Thermo Finnigan TSQ Quantum Ultra instrument, ESI positive ion ionization mode was used for MS/MS. Each compound was studied in duplicates. Results are expressed in percentage of lability (or total metabolism) using the following formula: Total metabolism=[1−(UC_Peak Area+Cofactor at T20)/(UC_Peak Area Reference at T0)]×100 where UC=Unchanged Compound; “Reference” sample was NADPH for liver microsomal preparation.

M. tuberculosis NHN20 = test: microbe, parasite or virus in culture; type: cell-based, Mycobacterium tuberculosis
M. tuberculosis Erdman = type: in vivo; details: 50 mg/kg b.i.d. (Inh q.d.); for Log10CFU Lungs / Log10CFU Spleen: day 15
[7] = Oxidative metabolic lability in human liver microsomes; details: 5 μM, 1 mg/mL microsomal protein, 20 min
Description: as §2, §3, §4

M. tuberculosis TN587 = test: microbe, parasite or virus in culture; type: cell-based, Mycobacterium tuberculosis
Vero cells = test: Cytotoxicity assay (resazurin, 72 h); type: cell-based
Description: The cytotoxicity assay was performed as described previously^16. Briefly compounds were serially diluted in 96 well plates.

M. tuberculosis W210 = test: microbe, parasite or virus in culture; type: cell-based, Mycobacterium tuberculosis

Cc1ncc([N+](=O)[O-])n1CCO [Metronidazole, reference compound]
Log10 (CFU+/−SD) [1]: 4.83 ± 0.06 | % Growth Reduction [1]: 70% | Log10 (CFU) Reduction [1]: 0.52

CO[C@H]1/C=C/O[C@@]2(C)Oc3c(C)c(O)c4c(O)c(c(/C=N/N5CCN(C)CC5)c(O)c4c3C2=O)NC(=O)/C(C)=C\C=C\[C@H](C)[C@H](O)[C@@H](C)[C@@H](O)[C@@H](C)[C@H](OC(C)=O)[C@@H]1C [Rifampicin, reference compound]
MIC In Combination (M. tuberculosis H37Rv [2]; SB-P8B2 with rifampicin): 0.5 × MIC | MIC Alone (M. tuberculosis H37Rv [2]): 1 × MIC

CCN(CC)c1cc2[nH]c(C3CCCCC3)nc2cc1NC(=O)c1ccc(OC)cc1.O=C(O)/C=C/C(=O)O [SB-P1G10-FUM]
Curve ([3]; Table B): Zonal | MIC ([3]; Table B): 6.25

CCN(CC)c1cc2[nH]c(C3CCCCC3)nc2cc1NC(=O)c1ccc(OC)cc1 [SB-P1G10]
drug concentration response curve (kill curve) type (M. tuberculosis H37Rv [4]): narrow range of concentrations of effective bactericidal activity (NREBA) kill curve | MIC range (M. tuberculosis H37Rv [4]): 3 to 6.25 µg/mL | concentration range of bactericidal activity (M. tuberculosis H37Rv [4]; drug concentration response curve): 0.5-4 fold of MIC | concentrations at which bacterial growth was inhibited (M. tuberculosis H37Rv [5]): none of the concentrations tested | Efficacy Lung (M. tuberculosis): No | Efficacy Spleen (M. tuberculosis): No | bacterial load in the lungs or spleen (M. tuberculosis; any animal model of infection conducted): never reduced the bacterial load | Curve ([3]; Table A): Zonal | MIC ([3]; Table A): 3.13-6.25

CCN(CC)c1cc2[nH]c(C3CCCCC3)nc2cc1NC(=O)c1ccc(N(C)C)cc1 [SB-P1G-A11]
Curve ([3]; Table B): Zonal | MIC ([3]; Table B): 12.5

CCN(CC)c1cc2[nH]c(C3CCCCC3)nc2cc1NC(=O)c1cnccn1 [SB-P1G-A12]
Curve ([3]; Table B): Zonal | MIC ([3]; Table B): 12.5

CCc1ccc(C(=O)Nc2cc3nc(C4CCCCC4)[nH]c3cc2N(CC)CC)cc1 [SB-P1G-A17]
Curve ([3]; Table B): Zonal | MIC ([3]; Table B): 1.56

C=Cc1cccc(C(=O)Nc2cc3nc(C4CCCCC4)[nH]c3cc2N(CC)CC)c1 [SB-P1G-A21]
Curve ([3]; Table B): Zonal | MIC ([3]; Table B): 25

CCCOCC(=O)Nc1cc2nc(C3CCCCC3)[nH]c2cc1N1CCCC1 [SB-P6B-A3]
Curve ([3]; Table B): Zonal | MIC ([3]; Table B): 12.5

CCCCOC(=O)Nc1cc2nc(C3CCCCC3)[nH]c2cc1N1CCCC1 [SB-P8B2]
drug concentration response curve (kill curve) type (M. tuberculosis H37Rv [4]): sigmoidal kill curves | MIC range (M. tuberculosis H37Rv [4]): 0.39 to 0.78 µg/mL | concentrations at which bacterial growth was inhibited (M. tuberculosis H37Rv [5]): > 0.31 µg/mL | Log10 (CFU+/−SD) [1]: 4.96 ± 0.18 | % Growth Reduction [1]: 59% | Log10 (CFU) Reduction [1]: 0.39 | Efficacy Lung (M. tuberculosis): Yes (.243) | Efficacy Spleen (M. tuberculosis): No | Curve ([3]; Table A): Sigmoid | MIC ([3]; Table A): .625 | MIC In Combination (M. tuberculosis H37Rv [2]; SB-P8B2 with rifampicin): 0.1 × MIC | enhancement of activity in the presence of the other drug (M. tuberculosis H37Rv [2]; SB-P8B2 with rifampicin): 8 fold | ΣFIC (M. tuberculosis H37Rv [2]; SB-P8B2 with rifampicin): 0.63 | MIC Alone (M. tuberculosis H37Rv [2]): 1 × MIC

COc1ccc(C(=O)Nc2cc3nc(C4CCCCC4)[nH]c3cc2N(C)C)cc1 [SB-P17G-A16]
Efficacy Lung (M. tuberculosis): Yes | Efficacy Spleen (M. tuberculosis): Yes | Curve ([3]; Table A): Sigmoid | MIC ([3]; Table A): .31

CN(C)c1cc2[nH]c(C3CCCCC3)nc2cc1NC(=O)c1ccc(OC(F)(F)F)c(F)c1F [SB-P17G-A33]
MIC (M. tuberculosis H37Rv [4]; H37Rv): 0.39 ± 0.16 µg/mL (≈ 0.808 µM) | reduction in number of viable bacteria (M. tuberculosis H37Rv [5]; 1×MIC, day 2): 0.8-1.7 Log10 CFU | Efficacy Lung (M. tuberculosis): Yes | Efficacy Spleen (M. tuberculosis): Yes | MIC (M. tuberculosis NHN382): 0.37 ± 0.24 µg/mL (≈ 0.767 µM) | Liver Microsome Lability Mouse [6]: 17% | MIC (M. tuberculosis NHN20): 0.39 ± 0.33 µg/mL (≈ 0.808 µM) | Δ Lungs (difference between means of Test and Control Groups) (M. tuberculosis Erdman; IP): −2.10** Log10 CFU | Δ Spleen (difference between means of Test and Control Groups) (M. tuberculosis Erdman; IP): −3.36*** Log10 CFU | Log10CFU Lungs (M. tuberculosis Erdman; IP): 4.59 ± 0.71 Log10 CFU | Log10CFU Spleen (M. tuberculosis Erdman; IP): 1.60 ± .0 Log10 CFU | Δ Lungs (difference between means of Test and Control Groups) (M. tuberculosis Erdman; PO): −1.72*** Log10 CFU | Δ Spleen (difference between means of Test and Control Groups) (M. tuberculosis Erdman; PO): −2.49*** Log10 CFU | Log10CFU Lungs (M. tuberculosis Erdman; PO): 4.58 ± 0.21 Log10 CFU | Log10CFU Spleen (M. tuberculosis Erdman; PO): 1.40 ± 1.24 Log10 CFU | Curve ([3]; Table A): Sigmoid | MIC ([3]; Table A): .5-.625 | Liver Microsome Lability Human [7]: 5% | MIC (M. tuberculosis TN587): 0.31 ± 0 µg/mL (≈ 0.643 µM) | Vero Cells (cytotoxicity IC50) (Vero cells; 72 h): >200 µg/mL | cytotoxicity in Vero cells (Vero cells; at 200 μg/mL): not cytotoxic; also recorded: non-toxic | MIC (M. tuberculosis W210): 0.47 ± 0.22 µg/mL (≈ 0.974 µM)

CN(C)c1cc2[nH]c(C3CCCCC3)nc2cc1NC(=O)OCc1ccccc1 [SB-P17G-C4]
Curve ([3]; Table B): Zonal | MIC ([3]; Table B): 12.5

COc1ccc(C(=O)Nc2cc3nc(C4CCCCC4)[nH]c3cc2Oc2ccc(F)cc2)cc1 [SB-P23D8]
Curve ([3]; Table B): Zonal | MIC ([3]; Table B): 3.13

Cc1ccc(C(=O)Nc2cc3nc(C4CCCCC4)[nH]c3cc2Oc2ccc(F)cc2)cc1 [SB-P26D9]
Curve ([3]; Table B): Zonal | MIC ([3]; Table B): 1.56

CC(C)(C)c1ccc(C(=O)Nc2cc3nc(C4CCCCC4)[nH]c3cc2Sc2ccccc2)cc1 [SB-P26F8]
Curve ([3]; Table B): Zonal | MIC ([3]; Table B): 25

Cc1ccc(C(=O)Nc2cc3nc(C4CCCCC4)[nH]c3cc2Sc2ccccc2)cc1 [SB-P26F9]
Curve ([3]; Table B): Zonal | MIC ([3]; Table B): 6.25

CC(C)(C)c1ccc(C(=O)Nc2cc3nc(C4CCCCC4)[nH]c3cc2SCc2ccccc2)cc1 [SB-P26H8]
Curve ([3]; Table B): Zonal | MIC ([3]; Table B): 25

Cc1ccc(C(=O)Nc2cc3nc(Cc4ccccc4)[nH]c3cc2N(C)C)cc1 [SB-P27A9]
Curve ([3]; Table B): Zonal | MIC ([3]; Table B): 12.5

CCC(CC)c1nc2cc(NC(=O)c3ccccc3OC)c(N(C)C)cc2[nH]1 [SB-P27C7]
Curve ([3]; Table B): Zonal | MIC ([3]; Table B): 6.25

CCCN(CCC)c1cc2[nH]c(C3CCCCC3)nc2cc1NC(=O)OCCOCC [SB-oli-C8]
Curve ([3]; Table B): Zonal | MIC ([3]; Table B): 6.25

O=C(Nc1cc2nc(C3CCCCC3)[nH]c2cc1N1CCCC1)OCc1ccccc1 [SBP8B4]
Efficacy Lung (M. tuberculosis): None | Efficacy Spleen (M. tuberculosis): None | Curve ([3]; Table A): Sigmoid | MIC ([3]; Table A): 3.13
